The record followed here is patent US10065973B2, “Substituted aminothiazolopyrimidinedione for the treatment and prophylaxis of virus infection” (Hoffmann-La Roche Inc., priority 2016, dated 2018).

By EC50 is commonly meant the concentration at which the effect is half-maximal. Read a low EC50 as greater potency.

The structures appear in SMILES notation.

human TLR7, sequence (Q9NYK1 27-1049): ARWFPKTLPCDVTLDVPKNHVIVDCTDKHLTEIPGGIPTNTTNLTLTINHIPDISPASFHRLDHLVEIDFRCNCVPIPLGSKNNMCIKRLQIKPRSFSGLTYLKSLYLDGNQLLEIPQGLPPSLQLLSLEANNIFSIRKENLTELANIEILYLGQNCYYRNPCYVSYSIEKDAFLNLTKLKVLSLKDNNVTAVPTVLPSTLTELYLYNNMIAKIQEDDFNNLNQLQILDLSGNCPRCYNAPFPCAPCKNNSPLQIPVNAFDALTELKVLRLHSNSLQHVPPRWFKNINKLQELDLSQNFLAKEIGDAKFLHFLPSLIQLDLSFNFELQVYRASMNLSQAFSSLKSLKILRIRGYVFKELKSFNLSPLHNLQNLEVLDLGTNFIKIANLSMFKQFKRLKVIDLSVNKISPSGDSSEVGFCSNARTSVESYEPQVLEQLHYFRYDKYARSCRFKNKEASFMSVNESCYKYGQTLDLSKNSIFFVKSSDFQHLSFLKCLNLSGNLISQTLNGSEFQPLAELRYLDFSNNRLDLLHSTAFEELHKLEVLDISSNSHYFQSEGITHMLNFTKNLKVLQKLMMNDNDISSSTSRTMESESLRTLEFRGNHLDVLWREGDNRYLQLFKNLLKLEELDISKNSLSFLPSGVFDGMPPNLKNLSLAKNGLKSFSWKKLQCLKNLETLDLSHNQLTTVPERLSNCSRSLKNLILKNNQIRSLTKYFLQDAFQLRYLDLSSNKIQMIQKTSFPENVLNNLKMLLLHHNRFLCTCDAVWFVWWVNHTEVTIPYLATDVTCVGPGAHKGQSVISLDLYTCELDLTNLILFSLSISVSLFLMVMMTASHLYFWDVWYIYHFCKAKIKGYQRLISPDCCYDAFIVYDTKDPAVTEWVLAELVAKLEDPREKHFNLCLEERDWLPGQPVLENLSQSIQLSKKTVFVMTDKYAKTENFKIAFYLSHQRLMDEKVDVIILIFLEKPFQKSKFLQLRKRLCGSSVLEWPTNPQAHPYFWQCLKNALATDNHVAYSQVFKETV

For this test, the target named is human TLR7 (Homo sapiens (Human), UniProt Q9NYK1). Nature of the test: HEK293-Blue-hTLR-7 cells assay (SEAP reporter). The format is cell-based. The following applies: 20 hours incubation. The source says:
HEK293-Blue-hTLR-7 Cells Assay: A stable HEK293-Blue-hTLR-7 cell line was purchased from InvivoGen (Cat.#: hkb-htlr7, San Diego, Calif., USA). These cells were designed for studying the stimulation of human TLR7 by monitoring the activation of NF-κB. A SEAP (secreted embryonic alkaline phosphatase) reporter gene was placed under the control of the IFN-β minimal promoter fused to five NF-κB and AP-1-binding sites. The SEAP was induced by activating NF-κB and AP-1 via stimulating HEK-Blue hTLR7 cells with TLR7 ligands. Therefore the reporter expression was regulated by the NF-κB promoter upon stimulation of human TLR7. The cell culture supernatant SEAP reporter activity was determined using QUANTI-Blue™ kit (Cat.#: rep-qb1, Invivogen, San Diego, Ca, USA) at a wavelength of 640 nm, a detection medium that turns purple to blue in the presence of alkaline phosphatase. HEK293-Blue-hTLR7 cells were incubated at a density of 250,000˜450,000 cells/mL in a volume of 180 μL in a 96-well plate in Dulbecco's Modified Eagle's medium (DMEM) containing 4.5 g/l glucose, 50 U/ml penicillin, […] streptomycin, […] Normocin, 2 mM L-glutamine, 10% (v/v) heat-inactivated fetal bovine serum for 24 h. Then the HEK293-Blue-hTLR-7 cells were incubated with addition of 20 μL test compound in a serial dilution in the presence of final DMSO at 1% and perform incubation under 37° C. in a CO2 incubator for 20 hours. Then 20 μL of the supernatant from each well was incubated with 180 μL Quanti-blue substrate solution at 37° C. for 1-3 hours and the absorbance was read at 620˜655 nm using a spectrophotometer.
On to `CC[C@H](OC(C)=O)[C@@H]1C[C@@H]([C@@H](C)O)[C@H](n2c(=O)sc3c(=O)[nH]c(N)nc32)O1` [Example 17, [(1S)-1-[(2S,4S,5R)-5-(5-Amino-2,7-dioxo-6H-thiazolo[4,5-d]pyrimidin-3-yl)-4-[(1R)-1-hydroxyethyl]tetrahydrofuran-2-yl]propyl] acetate], for which the EC50 stood at 15 µM.
For `CC[C@H](O)[C@@H]1C[C@@H]([C@H](O)c2ccccc2)[C@H](n2c(=O)sc3c(=O)[nH]c(N)nc32)O1` (single isomer, unassigned) [Example 18-B] the value was 9.7 µM.
`CC[C@H](O)[C@@H]1C[C@@H]([C@H](O)c2ccccc2)[C@H](n2c(=O)sc3c(=O)[nH]c(N)nc32)O1` (single isomer, unassigned) [Example 18-A] yielded an EC50 of 10.4 µM.
In the case of `Nc1nc2c(sc(=O)n2[C@@H]2O[C@H](CO)C[C@H]2C(O)C2CC2)c(=O)[nH]1` (single isomer, unassigned) [Example 2-A] it was 156 µM; in that of `CC[C@H](O)[C@@H]1C[C@@H](C(C)(C)O)[C@H](n2c(=O)sc3c(=O)[nH]c(N)nc32)O1` [Example 20, 5-Amino-3-[(2R,3S,5S)-3-(1-hydroxy-1-methyl-ethyl)-5-[(1S)-1-hydroxypropyl]tetrahydrofuran-2-yl]-6H-thiazolo[4,5-d]pyrimidine-2,7-dione], 3 µM.
In turn, `CCOC(=O)O[C@H](C)[C@@H]1C[C@@H]([C@@H](O)CC)O[C@H]1n1c(=O)sc2c(=O)[nH]c(N)nc21` [Example 11, [(1R)-1-[(2R,3S,5S)-2-(5-Amino-2,7-dioxo-6H-thiazolo[4,5-d]pyrimidin-3-yl)-5-[(1S)-1-hydroxypropyl]tetrahydrofuran-3-yl]ethyl] ethyl carbonate] showed an EC50 of 26 µM.
For `CC[C@H](O)[C@@H]1C[C@@H]([C@@H](C)OC)[C@H](n2c(=O)sc3c(=O)[nH]c(N)nc32)O1` [Example 13, 5-Amino-3-[(2R,3S,5S)-5-[(1S)-1-hydroxypropyl]-3-[(1R)-1-methoxyethyl]tetrahydrofuran-2-yl]-6H-thiazolo[4,5-d]pyrimidine-2,7-dione] the value was 36 µM; for `CC(C)(O)[C@@H]1C[C@@H](CO)O[C@H]1n1c(=O)sc2c(=O)[nH]c(N)nc21` [Example 8, 5-Amino-3-[(2R,3S,5S)-5-(hydroxymethyl)-3-(1-hydroxy-1-methyl-ethyl)tetrahydrofuran-2-yl]-6H-thiazolo[4,5-d]pyrimidine-2,7-dione], 23 µM.
For `CC[C@H](O)[C@@H]1C[C@@H]([C@H](C)O)[C@H](n2c(=O)sc3c(=O)[nH]c(N)nc32)O1` [Example 10-B, 5-amino-3-[(2R,3S,5S)-3-[(1S)-1-hydroxyethyl]-5-[(1S)-1-hydroxypropyl]tetrahydrofuran-2-yl]-6H-thiazolo[4,5-d]pyrimidine-2,7-dione] the value was 35 µM.
`CC[C@H](O)[C@@H]1C[C@@H]([C@@H](C)OC(=O)c2ccccc2)[C@H](n2c(=O)sc3c(=O)[nH]c(N)nc32)O1` [Example 12, [(1R)-1-[(2R,3S,5S)-2-(5-Amino-2,7-dioxo-6H-thiazolo[4,5-d]pyrimidin-3-yl)-5-[(1S)-1-hydroxypropyl]tetrahydrofuran-3-yl]ethyl] benzoate] yielded an EC50 of 6.5 µM.
For `COc1ccccc1C(O)[C@@H]1C[C@@H](CO)O[C@H]1n1c(=O)sc2c(=O)[nH]c(N)nc21` (single isomer, unassigned) [Example 5-A], a half-maximal effect (EC50) was put at 111 µM.
In turn, `CCC(O)[C@@H]1C[C@@H](CO)O[C@H]1n1c(=O)sc2c(=O)[nH]c(N)nc21` (single isomer, unassigned) [Example 3-A] had an EC50 of 111 µM.
In the case of `CC[C@H](O)[C@@H]1C[C@@H]([C@H](C)OC(C)=O)[C@H](n2c(=O)sc3c(=O)[nH]c(N)nc32)O1` [Example 9-B, [(1S)-1-[(2R,3S,5S)-2-(5-amino-2,7-dioxo-6H-thiazolo[4,5-d]pyrimidin-3-yl)-5-[(1S)-1-hydroxypropyl]tetrahydrofuran-3-yl]ethyl] acetate] it was 9.3 µM; in that of `C=CCO[C@H](C)[C@@H]1C[C@@H]([C@@H](O)CC)O[C@H]1n1c(=O)sc2c(=O)[nH]c(N)nc21` [Example 15, 3-[(2R,3S,5S)-3-[(1R)-1-Allyloxyethyl]-5-[(1S)-1-hydroxypropyl]tetrahydrofuran-2-yl]-5-amino-6H-thiazolo[4,5-d]pyrimidine-2,7-dione], 68 µM.
On to `Nc1nc2c(sc(=O)n2[C@@H]2O[C@H](CO)C[C@H]2C(O)c2ccccc2Cl)c(=O)[nH]1` (single isomer, unassigned) [Example 6-A], for which the EC50 was determined as 79 µM.
Compound `Nc1nc2c(sc(=O)n2[C@@H]2O[C@H](CO)C[C@H]2[C@H](O)c2ccccn2)c(=O)[nH]1` [Example 7, 5-Amino-3-[(2R,3S,5S)-5-(hydroxymethyl)-3-[(S)-hydroxy(2-pyridyl)methyl]tetrahydrofuran-2-yl]-6H-thiazolo[4,5-d]pyrimidine-2,7-dione] showed an EC50 of 225 µM.
On to `Nc1nc2c(sc(=O)n2[C@@H]2O[C@H](CO)C[C@H]2C(O)c2ccccc2)c(=O)[nH]1` (single isomer, unassigned) [Example 4-A], for which the EC50 was 205 µM.
On to `CC[C@H](O)[C@@H]1C[C@@H]([C@@H](C)OC(C)=O)[C@H](n2c(=O)sc3c(=O)[nH]c(N)nc32)O1` [Example 9-A, [(1R)-1-[(2R,3S,5S)-2-(5-Amino-2,7-dioxo-6H-thiazolo[4,5-d]pyrimidin-3-yl)-5-[(1S)-1-hydroxypropyl]tetrahydrofuran-3-yl]ethyl] acetate], for which the EC50 was 8.4 µM.
In the case of `CC[C@H](O)[C@@H]1C[C@@H]([C@@H](C)OCc2ccccc2)[C@H](n2c(=O)sc3c(=O)[nH]c(N)nc32)O1` [Example 14, 5-Amino-3-[(2R,3S,5S)-3-[(1R)-1-benzyloxyethyl]-5-[(1S)-1-hydroxypropyl]tetrahydrofuran-2-yl]-6H-thiazolo[4,5-d]pyrimidine-2,7-dione] it was 60 µM; in that of `CC[C@H](O)[C@@H]1C[C@@H](C(C)(C)OC(C)=O)[C@H](n2c(=O)sc3c(=O)[nH]c(N)nc32)O1` [Example 19, [1-[(2R,3S,5S)-2-(5-Amino-2,7-dioxo-6H-thiazolo[4,5-d]pyrimidin-3-yl)-5-[(1S)-1-hydroxypropyl]tetrahydrofuran-3-yl]-1-methyl-ethyl] acetate], 19 µM; in that of `CC(O)[C@@H]1C[C@@H](CO)O[C@H]1n1c(=O)sc2c(=O)[nH]c(N)nc21` (single isomer, unassigned) [Example 1-B], 39 µM.
For the compound `CC[C@H](O)[C@@H]1C[C@@H]([C@H](C)OC)[C@H](n2c(=O)sc3c(=O)[nH]c(N)nc32)O1` [Example 16, 5-Amino-3-[(2R,3S,5S)-5-[(1S)-1-hydroxypropyl]-3-[(1S)-1-methoxyethyl]tetrahydrofuran-2-yl]-6H-thiazolo[4,5-d]pyrimidine-2,7-dione], a half-maximal effect (EC50) was put at 35 µM.
Compound `CC[C@H](O)[C@@H]1C[C@@H]([C@@H](C)O)[C@H](n2c(=O)sc3c(=O)[nH]c(N)nc32)O1` [Example 10-A, 5-Amino-3-[(2R,3S,5S)-3-[(1R)-1-hydroxyethyl]-5-[(1S)-1-hydroxypropyl]tetrahydrofuran-2-yl]-6H-thiazolo[4,5-d]pyrimidine-2,7-dione] came in with an EC50 of 2.7 µM.
